Test results: patent US20260076974A1, “COMPOSITIONS FOR PREVENTING AND TREATING INFECTION COMPRISING AN ARTIFICIAL SWEETENER” (Brunel University London, priority 2022, published 2026)
Like-named read-outs stand apart in the source and are kept apart here.

Assays:
[1] = test system: E. coli
[2] = test system: Klebsiella pneumoniae
Excerpt: (§4) N=3 biological triplicate, each with technical triplicates).

[3] = test system: A. baumannii gene expression
Protocol: Cells were spun down and washed in RNAlater to preserve mRNA. RNA was isolated using a Qiagen RNAeasy Kit with column DNAase digestion. RNA integrity was determined using a Bioanalyzer. Samples were further processed for RNA sequencing on an Illumina MiSeq with 12 million reads per sample. Quality control and adapter trimming was performed with bcl2fastq.

[4] = test system: A. baumannii; test: Crystal violet biofilm formation assay / minimum biofilm inhibition concentration; type: cell-based, Acinetobacter baumannii
Protocol: (§1) Biofilm formation is linked to 80% of hospital-associated infections and is a major factor in the routine failure of antibiotic therapy.
(§2) All samples were exposed to the artificial sweeteners in LB medium for 19 hours before crystal violet biofilm assay was performed. […] The data present the mean of three biological replicates±SD. *p≤0.05, *p≤0.001 versus the bacterial growth in control samples.
(§3) All samples were exposed to artificial sweeteners for 19 hours before crystal violet biofilm assay was performed.

[5] = test system: K. pneumonia
[6] = test system: A. baumannii AB5075; test: Growth inhibition assay in LB medium (OD600); type: cell-based, Acinetobacter baumannii
[7] = test system: P. aeruginosa PA14; test: Growth inhibition assay in nutrient medium (OD600); type: cell-based, Pseudomonas aeruginosa
[8] = test system: E. coli; remark: listed apart in the source
Excerpt: as §4

[9] = test system: A. baumannii AB5075; test: Carbapenem E strip on agar with sweetener
Excerpt: The data presented is a representative image of three biological replicates±SD.

[10] = test system: P. aeruginosa PA14; test: Crystal violet biofilm formation assay / minimum biofilm inhibition concentration; type: cell-based, Pseudomonas aeruginosa; details: 3% (w/v) sucralose, […] (w/v) ace-K, LB medium, 19 hours
Protocol: as §1, §2, §3

[11] = test system: P. aeruginosa; test: Antibiotic susceptibility in the presence of sub-minimum inhibitory concentration of ace-K; type: cell-based, Pseudomonas aeruginosa; details: grown in the presence of ace-K for 19 hours
[12] = test system: A. baumannii AB5075; design: species or system Acinetobacter baumannii
Protocol: In this model, porcine skin was either burnt or lacerated and the wound infected with A. baumannii AB5075 and left for 3.5 hours to allow a biofilm to form. The dressing was applied for 1 hour and viable cells were collected after treatment. […] Samples were tested in biological triplicate with technical quadruplets.
(8% (w/w)), potassium tetraborate (3% (w/w)), and PVA (3% ((w/w)) were added into a beaker and mixed with deionized water. The mixture was placed in a water bath and heated at 80° C. for three hours with watch glass while being swirled with a stirring rod every 1 hour. Once hydrogels had been obtained, they were placed in a petri dish with custom-made moulds.

[13] = […] sweetener, 19 hours, LB medium
[14] = […] sweetener, 19 hours, 37° C.

O=S(=O)([O-])NC1CCCCC1.[Na+] [cyclamate, sodium cyclamate]
concentration inhibiting biofilm formation [1]: ≥ 3% | concentration showing significant / effective growth inhibition [2]: ≥ 2% | number of genes significantly differentially expressed [3]: 288 genes | concentration with significant impact on / inhibition of biofilm formation [4]: ≥ 4% | concentration inhibiting biofilm formation [5]: ≥ 3% | bacterial growth in the presence of sweetener [6]: inhibit the growth | concentration showing significant / effective growth inhibition [6]: ≥ 2% | bacterial growth in the presence of sweetener [7]: inhibit the growth | concentration showing significant / effective growth inhibition [7]: ≥ 2% | concentration showing significant / effective growth inhibition [8]: ≥ 0.1%

C[C@@H](O)[C@H]1C(=O)N2C(C(=O)O)=C(S[C@@H]3CN[C@H](CNS(N)(=O)=O)C3)[C@H](C)[C@H]12 [doripenem]
point to which growth was inhibited on the strip ([9]; Control): 18.67 ± 4.61 mg/L | point to which growth was inhibited on the strip ([9]; SAC 1%): 13.33 ± 2.31 ns mg/L | point to which growth was inhibited on the strip ([9]; SAC […]): 0.46 ± 0.07 mg/L

OC[C@@H](O)[C@@H](O)CO [erythritol, Erythritol]
bacterial growth in the presence of sweetener [6, 13]: inhibit the growth

C[C@@H](O)[C@H]1C(=O)N2C(C(=O)O)=C(SCCN=CN)C[C@H]12 [imipenem]
point to which growth was inhibited on the strip ([9]; Control): 21.33 ± 4.61 mg/L | point to which growth was inhibited on the strip ([9]; SAC 1%): 18.67 ± 4.61 ns mg/L | point to which growth was inhibited on the strip ([9]; SAC […]): 1 ± 0.43 mg/L

OCC1O[C@@H](O[C@@H]([C@H](O)[C@@H](O)CO)[C@H](O)CO)C(O)C(O)[C@H]1O (stereo partly drawn) [lactitol monohydrate, Lactitol]
bacterial growth in the presence of sweetener [6, 13]: inhibit the growth

OC[C@@H](O)[C@@H](O[C@H]1O[C@H](CO)[C@@H](O)[C@H](O)[C@H]1O)[C@H](O)[C@@H](O)CO [maltitol, Maltitol]
bacterial growth in the presence of sweetener [6, 13]: inhibit the growth | bacterial growth in the presence of sweetener [7, 14]: inhibit the growth

OC[C@@H](O)[C@@H](O)[C@H](O)[C@H](O)CO [mannitol, Mannitol]
bacterial growth in the presence of sweetener [6, 13]: inhibit the growth

C[C@@H](O)[C@H]1C(=O)N2C(C(=O)O)=C(S[C@@H]3CN[C@H](C(=O)N(C)C)C3)[C@H](C)[C@H]12 [meropenem]
point to which growth was inhibited on the strip ([9]; Control): ≥32 mg/L | point to which growth was inhibited on the strip ([9]; SAC 1%): 29.33 ± 4.61 ns mg/L | point to which growth was inhibited on the strip ([9]; SAC […]): 0.54 ± 0.19 mg/L

OC[C@@H](O)[C@@H](O)[C@H](O)[C@@H](O)CO [sorbitol]
bacterial growth in the presence of sweetener [7, 14]: inhibit the growth

OC[C@H]1O[C@H](O[C@]2(CCl)O[C@H](CCl)[C@@H](O)[C@@H]2O)[C@H](O)[C@@H](O)[C@H]1Cl [sucralose, Sucralose]
biofilm formation ([4]; 3% (w/v) sucralose, […] (w/v) ace-K, LB medium, 19 hours): significantly inhibit biofilm formation | biofilm formation [10]: significantly inhibit biofilm formation | bacterial growth in the presence of sweetener [6, 13]: inhibit the growth | bacterial growth in the presence of sweetener [7, 14]: inhibit the growth

OC[C@@H](O)[C@H](O)[C@@H](O)CO [xylitol, Xylitol]
bacterial growth in the presence of sweetener [6, 13]: inhibit the growth | bacterial growth in the presence of sweetener [7, 14]: inhibit the growth

gentamicin
susceptibility to antibiotic in the presence of ace-K [11]: increased susceptibility

piperacillin/tazobactam
susceptibility to antibiotic in the presence of ace-K [11]: increased susceptibility

polymyxin B [reference compound]
susceptibility to antibiotic in the presence of ace-K [11]: increased susceptibility | log reduction in viable cells [12]: 3.13 log | log reduction in viable cells ([12]; burn wound biofilms, gauze loaded with 1.5 mL of 0.59 mg/mL polymyxin B singularly): 2.11 log
